Among the data in patent US12018016B2, “Aryl sulfonyl (hydroxy) piperidines as CCR6 inhibitors” (CHEMOCENTRYX, INC., priority 2021, dated 2024) are IC50 values, retold here.

SMILES strings stand for the structures.

In this assay the target is T1, human CCR6 (Homo sapiens, UniProt P51684).
T1 construct: expressed in transfected cells; host or cells: Ba/F3 cells (mouse pro-B line)
T1 sequence (P51684 1-374): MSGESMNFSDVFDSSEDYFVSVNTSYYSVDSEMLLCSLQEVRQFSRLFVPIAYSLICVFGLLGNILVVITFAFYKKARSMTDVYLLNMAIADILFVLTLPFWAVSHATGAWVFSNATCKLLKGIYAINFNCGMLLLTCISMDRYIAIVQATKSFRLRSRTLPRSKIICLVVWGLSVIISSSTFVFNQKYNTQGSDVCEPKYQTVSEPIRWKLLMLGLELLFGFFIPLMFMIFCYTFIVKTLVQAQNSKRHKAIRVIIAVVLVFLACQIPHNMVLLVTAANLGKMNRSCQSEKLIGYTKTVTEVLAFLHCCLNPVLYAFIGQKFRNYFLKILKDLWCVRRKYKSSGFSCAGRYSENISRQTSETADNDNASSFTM
Kind of assay: Migration assay (chemotaxis, ChemoTX). It counts as cell-based. The following applies: hCCR6-transfected Ba/F3 cells in human serum, migration to recombinant human CCL20 10 nM, 37° C. 45 minutes; read-out: Potency (IC50 value in the migration assay). A digest of the protocol:
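Ba/F3 cells transfected with human CCR6 and butyrate-primed for 24 h were suspended at 4 million/ml in human serum with compound, serially diluted from a 1 μM final top concentration. Cells migrated through a 5-μm polycarbonate membrane toward 10 nM human CCL20 for 45 min at 37 °C. Migrated cells were quantified by CyQUANT fluorescence.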
With `COC(=O)c1cc(-c2ccc(S(=O)(=O)N3CC[C@@H](Nc4ccc(C(F)(F)F)cn4)[C@@H](O)C3)cc2)ccn1` [Example 39, Methyl 4-(4-(((3S,4R)-3-hydroxy-4-((5-(trifluoromethyl)pyridin-2-yl)amino)piperidin-1-yl)sulfonyl)phenyl)picolinate], the IC50 is less than 1 nM.
For the molecule `CN(C)C(=O)c1cc(-c2ccc(S(=O)(=O)N3CC[C@@H](Nc4ccc(C(F)(F)F)cn4)[C@@H](O)C3)cc2)ccn1` [Example 40, 4-(4-(((3S,4R)-3-Hydroxy-4-((5-(trifluoromethyl)pyridin-2-yl)amino)piperidin-1-yl)sulfonyl)phenyl)-N,N-dimethylpicolinamide], the IC50 was in the range of 1 to 10 nM.
As to `O=C(NCCO)c1cc(-c2ccc(S(=O)(=O)N3CC[C@@H](Nc4ccc(C(F)(F)F)cn4)[C@@H](O)C3)cc2)ccn1` [Example 41], the IC50 was less than 1 nM.
Take `NC(=O)c1ncc(-c2ccc(S(=O)(=O)N3CC[C@@H](Nc4ccc(C(F)(F)F)cn4)[C@@H](O)C3)cc2)s1` [Example 42, 5-(4-(((3S,4R)-3-Hydroxy-4-((5-(trifluoromethyl)pyridin-2-yl)amino)piperidin-1-yl)sulfonyl)phenyl)thiazole-2-carboxamide]: the IC50 is less than 1 nM.
Then `Cc1cc(-c2ccc(S(=O)(=O)N3CC[C@@H](Nc4ccc(C(F)(F)F)cn4)[C@@H](O)C3)cc2)cc2c(C#N)n[nH]c12` [Example 43, 5-(4-(((3S,4R)-3-hydroxy-4-((5-(trifluoromethyl)pyridin-2-yl)amino)piperidin-1-yl)sulfonyl)phenyl)-7-methyl-1H-indazole-3-carbonitrile], with less than 1 nM; and `COc1cc(-c2ccc(S(=O)(=O)N3CC[C@@H](Nc4ccc(C(F)(F)F)cn4)[C@@H](O)C3)cc2)cc(C(N)=O)n1` [Example 44, 4-(4-(((3S,4R)-3-Hydroxy-4-((5-(trifluoromethyl)pyridin-2-yl)amino)piperidin-1-yl)sulfonyl)phenyl)-6-methoxypicolinamide], with less than 1 nM; and `Cc1nc2[nH]ccc2c(C)c1-c1ccc(S(=O)(=O)N2CC[C@@H](Nc3ccc(C(F)(F)F)cn3)[C@@H](O)C2)cc1` [Example 45, (3S,4R)-1-((4-(4,6-dimethyl-1H-pyrrolo[2,3-b]pyridin-5-yl)phenyl)sulfonyl)-4-((5-(trifluoromethyl)pyridin-2-yl)amino)piperidin-3-ol], with less than 1 nM.
On to `Cc1nc2[nH]cc(C#N)c2cc1-c1ccc(S(=O)(=O)N2CC[C@@H](Nc3ccc(C(F)(F)F)cn3)[C@@H](O)C2)cc1` [Example 46, 5-(4-(((3S,4R)-3-hydroxy-4-((5-(trifluoromethyl)pyridin-2-yl)amino)piperidin-1-yl)sulfonyl)phenyl)-6-methyl-1H-pyrrolo[2,3-b]pyridine-3-carbonitrile], for which the IC50 is less than 1 nM.
The result for `O=c1[nH]c2ccc(-c3ccc(S(=O)(=O)N4CC[C@@H](Nc5ccc(C(F)(F)F)cn5)[C@@H](O)C4)cc3)cc2[nH]1` [Example 47, 5-(4-(((3S,4R)-3-hydroxy-4-((5-(trifluoromethyl)pyridin-2-yl)amino)piperidin-1-yl)sulfonyl)phenyl)-1,3-dihydro-2H-benzo[d]imidazol-2-one] reads less than 1 nM.
In the case of `O=C1NCc2ncc(-c3ccc(S(=O)(=O)N4CC[C@@H](Nc5ccc(C(F)(F)F)cn5)[C@@H](O)C4)cc3)cc21` [Example 48, 3-(4-(((3S,4R)-3-hydroxy-4-((5-(trifluoromethyl)pyridin-2-yl)amino)piperidin-1-yl)sulfonyl)phenyl)-6,7-dihydro-5H-pyrrolo[3,4-b]pyridin-5-one], the IC50 is less than 1 nM.
On to `Cn1nc(N)c2cc(-c3ccc(S(=O)(=O)N4CC[C@@H](Nc5ccc(C(F)(F)F)cn5)[C@@H](O)C4)cc3)ccc21` [Example 49, (3S,4R)-1-((4-(3-amino-1-methyl-1H-indazol-5-yl)phenyl)sulfonyl)-4-((5-(trifluoromethyl)pyridin-2-yl)amino)piperidin-3-ol], for which the IC50 was less than 1 nM.
Take `CNC(=O)c1cc(-c2ccc(S(=O)(=O)N3CC[C@@H](Nc4ccc(C(F)(F)F)cn4)[C@@H](O)C3)cc2)ccn1` [Example 50, 4-(4-(((3S,4R)-3-hydroxy-4-((5-(trifluoromethyl)pyridin-2-yl)amino)piperidin-1-yl)sulfonyl)phenyl)-N-methylpicolinamide]: the IC50 is less than 1 nM.
Take `NC(=O)c1cc(-c2ccc(S(=O)(=O)N3CC[C@@H](Nc4ccc(C(F)(F)F)cn4)[C@@H](O)C3)cc2)cnc1O` [Example 51, 2-Hydroxy-5-(4-(((3S,4R)-3-hydroxy-4-((5-(trifluoromethyl)pyridin-2-yl)amino)piperidin-1-yl)sulfonyl)phenyl)nicotinamide]: the IC50 was less than 1 nM.
Turning to `O=S(=O)(c1ccc(-c2ccnc(-c3ncc[nH]3)c2)cc1)N1CC[C@@H](Nc2ccc(C(F)(F)F)cn2)[C@@H](O)C1` [Example 52, (3S,4R)-1-((4-(2-(1H-imidazol-2-yl)pyridin-4-yl)phenyl)sulfonyl)-4-((5-(trifluoromethyl)pyridin-2-yl)amino)piperidin-3-ol], the IC50 is less than 1 nM.
Then `NC(=O)c1cc(-c2ccc(S(=O)(=O)N3CC[C@@H](Nc4ccc(C(F)(F)F)cn4)[C@@H](O)C3)cc2)cnc1N` [Example 53, 2-Amino-5-(4-(((3S,4R)-3-hydroxy-4-((5-(trifluoromethyl)pyridin-2-yl)amino)piperidin-1-yl)sulfonyl)phenyl)nicotinamide], with less than 1 nM; and `O=c1[nH]c2cc(-c3ccc(S(=O)(=O)N4CC[C@@H](Nc5ccc(C(F)(F)F)cn5)[C@@H](O)C4)cc3)cnc2[nH]1` [Example 54, 6-(4-(((3S,4R)-3-hydroxy-4-((5-(trifluoromethyl)pyridin-2-yl)amino)piperidin-1-yl)sulfonyl)phenyl)-1,3-dihydro-2H-imidazo[4,5-b]pyridin-2-one], with less than 1 nM.
The result for `Nc1n[nH]c2cc(-c3ccc(S(=O)(=O)N4CC[C@@H](Nc5ccc(C(F)(F)F)cn5)[C@@H](O)C4)cc3)ccc12` [Example 55, (3S,4R)-1-((4-(3-amino-1H-indazol-6-yl)phenyl)sulfonyl)-4-((5-(trifluoromethyl)pyridin-2-yl)amino)piperidin-3-ol] reads less than 1 nM; that for `Cc1c(-c2ccc(S(=O)(=O)N3CC[C@@H](Nc4ccc(C(F)(F)F)cn4)[C@@H](O)C3)cc2)cnc2[nH]cc(C#N)c12` [Example 56, 5-(4-(((3S,4R)-3-hydroxy-4-((5-(trifluoromethyl)pyridin-2-yl)amino)piperidin-1-yl)sulfonyl)phenyl)-4-methyl-1H-pyrrolo[2,3-b]pyridine-3-carbonitrile], less than 1 nM.
The result for `N#Cc1cc(-c2ccc(S(=O)(=O)N3CC[C@@H](Nc4ccc(C(F)(F)F)cn4)[C@@H](O)C3)cc2)ccn1` [Example 57, 4-(4-(((3S,4R)-3-hydroxy-4-((5-(trifluoromethyl)pyridin-2-yl)amino)piperidin-1-yl)sulfonyl)phenyl)picolinonitrile] reads less than 1 nM; that for `COc1c(-c2ccc(S(=O)(=O)N3CC[C@@H](Nc4ccc(C(F)(F)F)cn4)[C@@H](O)C3)cc2)cnc2[nH]ccc12` [Example 58, (3S,4R)-1-((4-(4-methoxy-1H-pyrrolo[2,3-b]pyridin-5-yl)phenyl)sulfonyl)-4-((5-(trifluoromethyl)pyridin-2-yl)amino)piperidin-3-ol], less than 1 nM.
With `Cc1c(-c2ccc(S(=O)(=O)N3CC[C@@H](Nc4ccc(C(F)(F)F)cn4)[C@@H](O)C3)cc2)cnc2[nH]ccc12` [Example 60, (3S,4R)-1-((4-(4-methyl-1H-pyrrolo[2,3-b]pyridin-5-yl)phenyl)sulfonyl)-4-((5-(trifluoromethyl)pyridin-2-yl)amino)piperidin-3-ol], the IC50 is less than 1 nM.
The result for `N#Cc1c[nH]c2ncc(-c3ccc(S(=O)(=O)N4CC[C@@H](Nc5ccc(C(F)(F)F)cn5)[C@@H](O)C4)cc3)cc12` [Example 61, 5-(4-(((3S,4R)-3-hydroxy-4-((5-(trifluoromethyl)pyridin-2-yl)amino)piperidin-1-yl)sulfonyl)phenyl)-1H-pyrrolo[2,3-b]pyridine-3-carbonitrile] reads less than 1 nM; that for `Cc1c(-c2ccc(S(=O)(=O)N3CC[C@@H](Nc4ccc(C(F)(F)F)cn4)[C@@H](O)C3)cc2)c(C)[n+]([O-])c2[nH]ccc12` [Example 62, 5-(4-(((3S,4R)-3-hydroxy-4-((5-(trifluoromethyl)pyridin-2-yl)amino)piperidin-1-yl)sulfonyl)phenyl)-4,6-dimethyl-1H-pyrrolo[2,3-b]pyridine 7-oxide], less than 1 nM; that for `Cc1nc2[nH]cc(C#N)c2c(C)c1-c1ccc(S(=O)(=O)N2CC[C@@H](Nc3ccc(C(F)(F)F)cn3)[C@@H](O)C2)cc1` [Example 63, 5-(4-(((3S,4R)-3-hydroxy-4-((5-(trifluoromethyl)pyridin-2-yl)amino)piperidin-1-yl)sulfonyl)phenyl)-4,6-dimethyl-1H-pyrrolo[2,3-b]pyridine-3-carbonitrile], less than 1 nM.
